Laboratory results as given in patent US20230257376A1, “ROCK INHIBITOR, AND PREPARATION METHOD THEREFOR AND USE THEREOF” (WUHAN LL SCIENCE AND TECHNOLOGY DEVELOPMENT CO., LTD., priority 2020, published 2023).
pIC50: −log10 of the molar value.

Assays:
ROCK2 kinase = molecular target: T1, ROCK2 kinase (Homo sapiens, UniProt O75116); experiment: In vitro evaluation of ROCK2 kinase activity (HTRF KinEASE-STK time-resolved fluorometric assay); assay type: biochemical; settings: ROCK2 kinase 0.4 ng/μL, ATP 6.739 μM
T1 construct: purchased Invitrogen PV3759
Protocol: ROCK2 activity screening. ROCK2 activity was detected using a 96-well (Cisbio) time-resolved fluorometric assay. The assay for ROCK2 was performed in the following assay buffer: 5 mM MgCl2 (Sigma), 1 mM DTT (Sigma) and 1× kinase buffer. The kinase buffer was used for dilution. 7.5 μL of ROCK2 kinase (Invitrogen, PV3759) was added to a 96-well microplate to reach a final concentration of 0.4 ng/μL, and then 0.25 μL of test compound (DMSO content: 1% (volume fraction)) was added. The mixture was incubated at room temperature for 0.5 h. To start the reaction, the kinase buffer was used to mix ATP (Aladdin) and the substrate STK-substrate 2-biotin. 7.5 μL of the mixed solution was added to the microplate to reach final concentrations of 6.739 μM and 1 μM. The resulting mixture was incubated at room temperature for 2 h. 5 mL of detection buffer was mixed with STK antibody-Cryptate, and then an appropriate volume of the mixture was mixed with an equal volume of streptavidin-XL665. 10 μL of the resulting mixture was added to the microplate to stop the reaction. After further incubation for about 1 h, the microplate was read on a Molecular Devices SpectraMax i3x multifunctional microplate reader. The kinase buffer, the STK-substrate 2-biotin, the detection buffer, the STK antibody-Cryptate, and the streptavidin-XL665 were all from HTRF KinEASE-STK kit (Cisbio, 1000 tests, 61GSTXLA).

ROCK1 kinase = molecular target: T2, ROCK1 kinase (Homo sapiens, UniProt Q13464); experiment: In vitro evaluation of ROCK1 kinase selectivity (HTRF KinEASE-STK time-resolved fluorometric assay); assay type: biochemical; settings: ROCK1 kinase 0.4 ng/μL, ATP 3.53 μM
T2 construct: purchased Invitrogen
Protocol: ROCK1 activity was detected using a 96-well (Cisbio) time-resolved fluorometric assay. The assay for ROCK1 was performed in the following assay buffer: 5 mM MgCl2 (Sigma), 1 mM DTT (Sigma) and 1× kinase buffer. The kinase buffer was used for dilution. 7.5 μL of ROCK1 kinase (Invitrogen) was added to a 96-well microplate to reach a final concentration of 0.4 ng/μL, and then 0.25 μL of test compound (DMSO content: 1%) was added. The mixture was incubated at room temperature for 0.5 h. To start the reaction, the kinase buffer was also used to mix ATP (Aladdin) and the substrate STK-substrate 2-biotin. 7.5 μL of the mixed solution was added to the microplate to reach final concentrations of 3.53 μM and 1 μM. The resulting mixture was incubated at room temperature for 2 h. 5 mL of detection buffer was mixed with STK antibody-Cryptate, and then an appropriate volume of the mixture was mixed with an equal volume of streptavidin-XL665. 10 μL of the resulting mixture was added to stop the reaction. After further incubation for about 1 h, the microplate was read on a Molecular Devices SpectraMax i3x multifunctional microplate reader. The kinase buffer, the STK-substrate 2-biotin, the detection buffer, the STK antibody-Cryptate, and the streptavidin-XL665 were all from HTRF KinEASE-STK kit (Cisbio, 1000 tests, 61GSTXLA).

T1 sequence (O75116 whole entry): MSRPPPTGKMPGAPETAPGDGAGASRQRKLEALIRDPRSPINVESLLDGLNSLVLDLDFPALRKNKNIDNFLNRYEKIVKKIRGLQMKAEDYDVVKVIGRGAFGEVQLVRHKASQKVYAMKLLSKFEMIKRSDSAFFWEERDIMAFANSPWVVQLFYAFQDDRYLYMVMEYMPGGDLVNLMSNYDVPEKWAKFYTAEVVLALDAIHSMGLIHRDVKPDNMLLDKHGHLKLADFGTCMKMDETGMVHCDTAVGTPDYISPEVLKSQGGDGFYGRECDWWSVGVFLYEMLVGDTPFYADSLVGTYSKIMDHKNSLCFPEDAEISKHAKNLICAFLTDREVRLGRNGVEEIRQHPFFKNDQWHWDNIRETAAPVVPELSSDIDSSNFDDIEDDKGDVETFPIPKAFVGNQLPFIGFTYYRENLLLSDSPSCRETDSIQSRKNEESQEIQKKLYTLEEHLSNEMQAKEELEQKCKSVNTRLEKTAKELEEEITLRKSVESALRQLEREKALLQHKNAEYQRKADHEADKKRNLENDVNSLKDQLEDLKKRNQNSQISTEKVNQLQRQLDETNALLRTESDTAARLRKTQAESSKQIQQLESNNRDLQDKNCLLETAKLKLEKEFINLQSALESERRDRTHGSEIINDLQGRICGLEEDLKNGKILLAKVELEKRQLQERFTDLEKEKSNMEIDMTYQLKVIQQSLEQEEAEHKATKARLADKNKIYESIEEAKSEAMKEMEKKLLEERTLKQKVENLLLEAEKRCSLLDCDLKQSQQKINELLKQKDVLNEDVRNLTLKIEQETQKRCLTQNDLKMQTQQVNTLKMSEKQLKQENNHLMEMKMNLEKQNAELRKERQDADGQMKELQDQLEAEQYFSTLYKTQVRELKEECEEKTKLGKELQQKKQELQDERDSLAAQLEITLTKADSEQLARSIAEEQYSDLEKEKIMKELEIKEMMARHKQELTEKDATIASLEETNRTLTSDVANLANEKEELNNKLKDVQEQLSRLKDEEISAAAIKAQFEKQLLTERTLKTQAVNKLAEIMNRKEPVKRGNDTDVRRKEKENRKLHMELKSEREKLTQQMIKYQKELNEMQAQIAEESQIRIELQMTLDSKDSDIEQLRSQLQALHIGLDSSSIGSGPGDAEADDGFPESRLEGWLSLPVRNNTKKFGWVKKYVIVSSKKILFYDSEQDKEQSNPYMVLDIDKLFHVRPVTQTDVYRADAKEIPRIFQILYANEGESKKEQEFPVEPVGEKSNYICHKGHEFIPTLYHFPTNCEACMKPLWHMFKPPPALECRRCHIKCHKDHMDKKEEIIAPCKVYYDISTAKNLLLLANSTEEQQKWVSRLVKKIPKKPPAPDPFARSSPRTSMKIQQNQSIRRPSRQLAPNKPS
T2 sequence (Q13464 whole entry): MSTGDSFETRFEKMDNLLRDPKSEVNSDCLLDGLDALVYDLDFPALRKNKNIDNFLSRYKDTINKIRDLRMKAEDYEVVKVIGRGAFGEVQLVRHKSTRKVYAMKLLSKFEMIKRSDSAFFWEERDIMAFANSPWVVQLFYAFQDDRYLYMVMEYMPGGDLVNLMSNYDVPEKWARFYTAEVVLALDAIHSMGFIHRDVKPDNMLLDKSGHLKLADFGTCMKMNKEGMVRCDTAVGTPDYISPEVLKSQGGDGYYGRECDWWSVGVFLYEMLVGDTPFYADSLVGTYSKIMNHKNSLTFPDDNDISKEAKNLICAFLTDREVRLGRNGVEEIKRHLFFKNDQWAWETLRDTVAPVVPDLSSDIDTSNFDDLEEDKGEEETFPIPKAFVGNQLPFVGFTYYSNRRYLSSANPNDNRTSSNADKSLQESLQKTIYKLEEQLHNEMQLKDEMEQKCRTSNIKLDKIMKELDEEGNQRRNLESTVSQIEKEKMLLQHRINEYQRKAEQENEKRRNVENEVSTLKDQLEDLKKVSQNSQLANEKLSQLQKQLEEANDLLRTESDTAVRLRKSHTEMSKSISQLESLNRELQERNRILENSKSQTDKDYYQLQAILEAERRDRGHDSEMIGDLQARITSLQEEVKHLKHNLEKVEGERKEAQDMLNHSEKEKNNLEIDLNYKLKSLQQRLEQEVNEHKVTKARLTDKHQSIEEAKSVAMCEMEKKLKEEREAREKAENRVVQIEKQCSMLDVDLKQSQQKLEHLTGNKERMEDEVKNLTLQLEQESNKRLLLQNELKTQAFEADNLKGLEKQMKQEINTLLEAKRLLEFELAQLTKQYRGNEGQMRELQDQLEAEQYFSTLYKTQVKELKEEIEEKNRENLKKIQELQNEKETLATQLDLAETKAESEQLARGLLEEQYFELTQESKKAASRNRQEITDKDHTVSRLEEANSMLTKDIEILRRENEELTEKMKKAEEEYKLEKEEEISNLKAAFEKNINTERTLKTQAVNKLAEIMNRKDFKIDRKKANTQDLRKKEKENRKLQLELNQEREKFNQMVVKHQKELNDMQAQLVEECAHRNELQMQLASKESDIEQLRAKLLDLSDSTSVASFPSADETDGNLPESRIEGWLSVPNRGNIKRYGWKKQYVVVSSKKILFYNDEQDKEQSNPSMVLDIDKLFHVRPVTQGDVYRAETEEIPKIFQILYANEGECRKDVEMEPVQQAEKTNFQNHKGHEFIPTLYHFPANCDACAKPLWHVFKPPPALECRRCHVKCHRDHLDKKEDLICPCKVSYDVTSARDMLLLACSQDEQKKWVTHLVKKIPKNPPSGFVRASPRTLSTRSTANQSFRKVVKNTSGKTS

Cn1c(C(=O)NC2CC(F)(F)C2)cc2c1CN(c1nccc(Nc3ccc(-c4cn[nH]c4)cc3)n1)CC2 [Compound L004, 6-(4-((4-(1H-pyrazol-4-yl)phenyl)amino)pyrimidin-2-yl)-N-(3,3-difluorocyclobutyl)-1-methyl-4,5,6,7-tetrahydro-1H-pyrrolo[2,3-c]pyridine-2-carboxamide]
pIC50 (ROCK2 kinase): 6.30 to 7.30 | pIC50 (ROCK1 kinase): 5.35 to 6.30

Cn1c(C(=O)N2CC(F)(F)C2)cc2c1CN(c1nccc(Nc3ccc4[nH]ncc4c3)n1)CC2 [Compound L006, (6-(4-((1H-indazol-5-yl)amino)pyrimidin-2-yl)-1-methyl-4,5,6,7-tetrahydro-1H-pyrrol[2,3-c]pyridin-2-yl)(3,3-difluoroazetidin-1-yl)methanone]
pIC50 (ROCK2 kinase): 6.30 to 7.30 | pIC50 (ROCK1 kinase): 5.35 to 6.30

O=C(NC1CC(F)(F)C1)c1cn2c(n1)CN(c1nccc(Nc3ccc(-c4cn[nH]c4)cc3)n1)CC2 [Compound L008, 7-(4-((4-(1H-pyrazol-4-yl)phenyl)amino)pyrimidin-2-yl)-N-(3,3-difluorocyclobutyl)-5,6,7,8-tetrahydroimidazo[1,2-a]pyrazine-2-carboxamide]
pIC50 (ROCK2 kinase): ≥ 7.30 | pIC50 (ROCK1 kinase): < 5.35

Cn1c(C(=O)N2CC(C#N)C2)cc2c1CN(c1nccc(Nc3ccc(-c4cn[nH]c4)cc3)n1)CC2 [Compound L010, 1-(6-(4-((4-(1H-pyrazol-4-yl)phenyl)amino)pyrimidin-2-yl)-1-methyl-4,5,6,7-tetrahydro-1H-pyrrolo[2,3-c]pyridin-2-carbonyl)azetidine-3-carbonitrile]
pIC50 (ROCK2 kinase): ≥ 7.30 | pIC50 (ROCK1 kinase): < 5.35

Cn1c(C(=O)Nc2ccnnc2)cc2c1CN(c1nccc(Nc3ccc(-c4cn[nH]c4)cc3)n1)CC2 [Compound L012, 6-(4-((4-(1H-pyrazol-4-yl)phenyl)amino)pyrimidin-2-yl)-1-methyl-N-(pyridazin-4-yl)-4,5,6,7-tetrahydro-1H-pyrrolo[2,3-c]pyridine-2-carboxamide]
pIC50 (ROCK2 kinase): 6.30 to 7.30 | pIC50 (ROCK1 kinase): 6.30 to 7.30

O=C(c1cn2c(n1)CN(c1nccc(Nc3ccc(-c4cn[nH]c4)cc3)n1)CC2)N1CC(F)(F)C1 [Compound L015]
pIC50 (ROCK2 kinase): 6.30 to 7.30 | pIC50 (ROCK1 kinase): < 5.35

Cn1c(C(=O)N2CC(F)(F)C2)cc2c1CN(c1nccc(Nc3ccc(-c4c[nH]nc4F)c(F)c3)n1)CC2 [Compound L016, (3,3-difluoroazetidin-1-yl)(6-(4-((3-fluoro-4-(3-fluoro-1H-pyrazol-4-yl)phenyl)amino)pyrimidin-2-yl)-1-methyl-4,5,6,7-tetrahydro-1H-pyrrolo[2,3-c]pyridin-2-yl)methanone]
pIC50 (ROCK2 kinase): ≥ 7.30 | pIC50 (ROCK1 kinase): < 5.35

Cn1c(C(=O)N2CC(F)(F)C2)cc2c1C(C)(C)N(c1nccc(Nc3ccc(-c4cn[nH]c4)cc3)n1)CC2 [Compound L018]
pIC50 (ROCK2 kinase): 6.30 to 7.30 | pIC50 (ROCK1 kinase): < 5.35

Cn1c(C(=O)N2CC(F)(F)C2)cc2c1CN(c1nccc(Nc3ccc(-c4cn[nH]c4)cc3)n1)CC2(C)C [Compound L020, (6-(4-((4-(1H-pyrazol-4-yl)phenyl)amino)pyrimidin-2-yl)-1,4,4-trimethyl-4,5,6,7-tetrahydro-1H-pyrrolo[2,3-c]pyridin-2-yl)(3,3-difluoroazetidin-1-yl)methanone]
pIC50 (ROCK2 kinase): 6.30 to 7.30 | pIC50 (ROCK1 kinase): < 5.35

Cn1c(C(=O)NC2CCN(c3ccncc3Cl)CC2)cc2c1CN(c1nccc(Nc3ccc(-c4cn[nH]c4)cc3)n1)CC2 [Compound L021]
pIC50 (ROCK2 kinase): 6.30 to 7.30 | pIC50 (ROCK1 kinase): < 5.35

Cn1c(C(=O)Nc2cnccc2F)cc2c1CN(c1nccc(Nc3ccc(-c4cn[nH]c4)cc3)n1)CC2 [Compound L023]
pIC50 (ROCK2 kinase): 6.30 to 7.30 | pIC50 (ROCK1 kinase): 5.35 to 6.30

Cn1c(C(=O)N2C[C@@H](O)[C@@H](F)C2)cc2c1CN(c1nccc(Nc3ccc(-c4cn[nH]c4)cc3)n1)CC2 [Compound L024]
pIC50 (ROCK2 kinase): ≥ 7.30 | pIC50 (ROCK1 kinase): 5.35 to 6.30

O=C(c1ccc2c(c1)CN(c1nccc(Nc3ccc(-c4cn[nH]c4)cc3)n1)CC2)N1CC(F)(F)C1 [Compound L028, (2-(4-((4-(1H-pyrazol-4-yl)phenyl)amino)pyrimidin-2-yl)-1,2,3,4-tetrahydroisoquinolin-7-yl)(3,3-difluoroazetidin-1-yl)methanone]
pIC50 (ROCK2 kinase): 5.35 to 6.30 | pIC50 (ROCK1 kinase): < 5.35

O=C(c1ccc2c(c1)CCN(c1nccc(Nc3ccc(-c4cn[nH]c4)cc3)n1)C2)N1CC(F)(F)C1 [Compound L029]
pIC50 (ROCK2 kinase): 5.35 to 6.30 | pIC50 (ROCK1 kinase): < 5.35

Cn1c(C(=O)N2CC(F)(F)C2)cc2c1CN(c1ncc(C#N)c(Nc3ccc(-c4cn[nH]c4)cc3)n1)CC2 [Compound L034, 4-((4-(1H-pyrazol-4-yl)phenyl)amino)-2-(2-(3,3-difluoroazetidin-1-carbonyl)-1-methyl-4,5-dihydro-1H-pyrrolo[2,3-c]pyridin-6(7H)-yl)pyrimidine-5-carbonitrile]
pIC50 (ROCK2 kinase): ≥ 7.30 | pIC50 (ROCK1 kinase): < 5.35

Cn1c(C(=O)N2CC(F)(F)C2)cc2c1CN(c1ncc(C(F)(F)F)c(Nc3ccc(-c4cn[nH]c4)cc3)n1)CC2 [Compound L035, (6-(4-((4-(1H-pyrazol-4-yl)phenyl)amino)-5-(trifluoromethyl)pyrimidin-2-yl)-1-methyl-4,5,6,7-tetrahydro-1H-pyrrolo[2,3-c]pyridin-2-yl)(3,3-difluoroazetidin-1-yl)methanone]
pIC50 (ROCK2 kinase): 6.30 to 7.30 | pIC50 (ROCK1 kinase): < 5.35

Cn1c(C(=O)N2CC(F)(F)C2)cc2c1CN(c1ncc(Cl)c(Nc3ccc(-c4c[nH]nc4F)cc3)n1)CC2 [Compound L038, (6-(5-chloro-4-((4-(3-fluoro-1H-pyrazol-4-yl)phenyl)amino)pyrimidin-2-yl)-1-methyl-4,5,6,7-tetrahydro-1H-pyrrolo[2,3-c]pyridin-2-yl)(3,3-difluoroazetidin-1-yl)methanone]
pIC50 (ROCK2 kinase): 6.30 to 7.30 | pIC50 (ROCK1 kinase): < 5.35

Cn1c(C(=O)N2CC(C(F)F)C2)cc2c1CN(c1ncc(F)c(Nc3ccc(-c4c[nH]nc4F)cc3)n1)CC2 [Compound L039, (3-(difluoromethyl)azetidin-1-yl)(6-(5-fluoro-4-((4-(3-fluoro-1H-pyrazol-4-yl)phenyl)amino)pyrimidin-2-yl)-1-methyl-4,5,6,7-tetrahydro-1H-pyrrolo[2,3-c]pyridin-2-yl)methanone]
pIC50 (ROCK2 kinase): 6.30 to 7.30 | pIC50 (ROCK1 kinase): < 5.35

Cn1c(C(=O)N2CC(F)(F)C2)cc2c1CN(c1nc(Nc3ccc(-c4cn[nH]c4)cc3)cc(C(F)(F)F)n1)CC2 [Compound L041, (6-(4-((4-(1H-pyrazol-4-yl)phenyl)amino)-6-(trifluoromethyl)pyrimidin-2-yl)-1-methyl-4,5,6,7-tetrahydro-1H-pyrrolo[2,3-c]pyridin-2-yl)(3,3-difluoroazetidin-1-yl)methanone]
pIC50 (ROCK2 kinase): 6.30 to 7.30 | pIC50 (ROCK1 kinase): < 5.35

Cn1c(C(=O)N2CC(F)(F)C2)cc2c1CN(c1nnc(Nc3ccc(-c4cn[nH]c4)cc3)o1)CC2 [Compound L046, (6-(5-((4-(1H-pyrazol-4-yl)phenyl)amino)-1,3,4-oxadiazol-2-yl)-1-methyl-4,5,6,7-tetrahydro-1H-pyrrolo[2,3-c]pyridin-2-yl)(3,3-difluoroazetidin-1-yl)methanone]
pIC50 (ROCK2 kinase): < 5.35 | pIC50 (ROCK1 kinase): < 5.35

CC(C)c1nc(Nc2ccc(-c3cn[nH]c3)cc2)nc(N2CCc3cc(C(=O)N4CC(F)(F)C4)n(C)c3C2)n1 [Compound L049]
pIC50 (ROCK2 kinase): 6.30 to 7.30 | pIC50 (ROCK1 kinase): < 5.35
